Test results from patent publication US10899747B2, “Biaryl piperidine amide compounds and methods of use thereof” (Athenex, Inc., priority 2017, dated 2021).

System: IL-2
Assay: PHA-IL2 (cell activation and cytokine analysis)
Assay type: cell-based
Conditions: 50% inhibition concentration class
Procedure: Cells to be tested may include, but are not limited to, a) Jurkat (a transformed human T cell leukemia), b) whole blood isolated from human or rodent sources, c) peripheral blood mononuclear cells (PBMC) freshly isolated from human or rodent whole blood, or d) purified fractions of PBMC (e.g., CD4 T cells). Cells are plated in 96-well plates at a final density of 1.0-2.0×10^6 cells/ml in 150 ul of assay medium (RPMI+0.5% fetal calf serum). Test compounds are included at a final concentration of ≤20 uM and generally pre-incubated with cells for 30 minutes prior to stimulation. An appropriate stimulus is added, including but not limited to, a) phytohemagglutinin (PHA), b) phorbol myristate acetate (PMA) and ionomycin, or c) stimulatory antibodies to the T cell receptor (TCR) complex (e.g., anti-CD3ε) and CD28. Cell cultures are stimulated for 24-48 hours in a humidified incubator (37 degrees C./5% CO2). A fraction of the culture supernatant is than harvested from each well and assayed for the presence of appropriate cytokine using standard ELISA. Cytokines to be analyzed may include IL-2, IL-4, IL-10, IL-17, IL-22, IFNγ, and/or TNFα. If required, the number of cytokine producing cells can be determined using intracellular staining and flow cytometry. […]

Which IC50 does the source give for `CCOc1cccc(-c2ccccc2OCC(=O)N2CCC(CCc3ccc4c(c3)OCO4)CC2)c1` [Compound 206] here?
Its IC50 is less than 1000 nM.

For `CCOc1ccccc1-c1ccccc1OCC(=O)N1CCC(CCc2ccc3c(c2)OCO3)CC1` [Compound 207], which IC50 is on record?
The IC50 was less than 1000 nM.

With `O=C(COc1ccccc1-c1ccccc1)N1CCC(CCc2ccc3c(c2)OCCCO3)CC1` [Compound 208] as the compound, how does the IC50 read?
The IC50 was less than 1000 nM.

How did the IC50 turn out when `CC(Oc1ccccc1-c1ccccc1)C(=O)N1CCC(CCc2ccc3c(c2)OCCCO3)CC1` (stereo not shown) [Compound 209] was run?
The IC50 was less than 1000 nM.

For `CCCC(Oc1ccccc1-c1ccccc1)C(=O)N1CCC(CCc2ccc3c(c2)OCCCO3)CC1` (stereo not shown) [Compound 210], which IC50 is on record?
The IC50 was less than 1000 nM.

`O=C(COc1ccccc1-c1ccccc1)N1CCC(CCc2ccc3c(c2)OC(F)(F)O3)CC1` [Compound 211] was tested. Which IC50 did it give?
Its IC50 is 1000 to 10000 nM.

For `CN(C)c1ccc(-c2ccccc2OCC(=O)N2CCC(CCc3ccc4c(c3)OCO4)CC2)cc1` [Compound 213], which IC50 is on record?
The IC50 was 10000 to 50000 nM.

With `O=C(COc1ccccc1-c1ccccc1Oc1ccccc1)N1CCC(CCc2ccc3c(c2)OCO3)CC1` [Compound 216] as the compound, how does the IC50 read?
The IC50 was less than 1000 nM.

Which IC50 does the source give for `O=C(COc1ccccc1-c1cccc(OCc2ccccc2)c1)N1CCC(CCc2ccc3c(c2)OCO3)CC1` [Compound 217] here?
Its IC50 is 1000 to 10000 nM.

How did the IC50 turn out when `O=C(COc1ccccc1-c1ccc(-c2ccccc2)cc1)N1CCC(CCc2ccc3c(c2)OCO3)CC1` [Compound 218] was run?
The IC50 was 1000 to 10000 nM.

How did the IC50 turn out when `O=C(CCc1ccccc1-c1ccccc1)N1CCC(CCc2ccc3c(c2)OCO3)CC1` [Compound 219] was run?
The IC50 was 10000 to 50000 nM.

With `O=C(CCc1ccccc1-c1ccccc1)N1CCC(CCc2cc(F)cc(F)c2)CC1` [Compound 220] as the compound, how does the IC50 read?
Its IC50 is 10000 to 50000 nM.

For `COc1cccc(CCC2CCN(C(=O)CCc3ccccc3-c3ccccc3)CC2)c1` [Compound 221], which IC50 is on record?
The IC50 was 10000 to 50000 nM.

Which IC50 does the source give for `O=C(CCc1ccccc1-c1ccc(F)cc1)N1CCC(CCc2ccc3c(c2)OCO3)CC1` [Compound 222] here?
The IC50 was 1000 to 10000 nM.

For `O=C(CCc1ccccc1-c1ccc(F)cc1)N1CCC(CCc2cc(F)cc(F)c2)CC1` [Compound 223], which IC50 is on record?
Its IC50 is 1000 to 10000 nM.

How did the IC50 turn out when `COc1cccc(CCC2CCN(C(=O)CCc3ccccc3-c3ccc(F)cc3)CC2)c1` [Compound 224] was run?
Its IC50 is 1000 to 10000 nM.

For `N#Cc1ccc(-c2ccccc2CCC(=O)N2CCC(CCc3ccc4c(c3)OCO4)CC2)cc1` [Compound 225], which IC50 is on record?
The IC50 was 1000 to 10000 nM.

`N#Cc1ccc(-c2ccccc2CCC(=O)N2CCC(CCc3cc(F)cc(F)c3)CC2)cc1` [Compound 226] was tested. Which IC50 did it give?
Its IC50 is 1000 to 10000 nM.

For `COc1cccc(CCC2CCN(C(=O)CCc3ccccc3-c3ccc(C#N)cc3)CC2)c1` [Compound 227], which IC50 is on record?
Its IC50 is 1000 to 10000 nM.

With `O=C(COc1ccccc1-c1ccccc1CN1CCOCC1)N1CCC(CCc2ccc3c(c2)OCO3)CC1` [Compound 228] as the compound, how does the IC50 read?
The IC50 was 1000 to 10000 nM.

How did the IC50 turn out when `Cc1cccc(-c2ccccc2)c1OC(C)C(=O)N1CCC(CCc2cc(F)cc(F)c2)CC1` (stereo not shown) [Compound 229] was run?
The IC50 was 1000 to 10000 nM.

With `O=C(COc1ccccc1-c1ccc(F)cc1)N1CCC(CCc2ccc3c(c2)OCCCO3)CC1` [Compound 230] as the compound, how does the IC50 read?
Its IC50 is less than 1000 nM.

How did the IC50 turn out when `N#Cc1ccc(-c2ccccc2OCC(=O)N2CCC(CCc3ccc4c(c3)OCCCO4)CC2)cc1` [Compound 231] was run?
The IC50 was less than 1000 nM.

For `O=C(COc1ccccc1-c1ccccc1O)N1CCC(CCc2ccc3c(c2)OCCCO3)CC1` [Compound 233], which IC50 is on record?
The IC50 was less than 1000 nM.

Which IC50 does the source give for `COc1ccc(CCC2CCN(C(=O)C(C)Oc3c(C)cccc3-c3ccccc3)CC2)cc1` (stereo not shown) [Compound 234] here?
Its IC50 is 1000 to 10000 nM.

How did the IC50 turn out when `COc1cccc(CCC2CCN(C(=O)C(C)Oc3c(C)cccc3-c3ccccc3)CC2)c1` (stereo not shown) [Compound 235] was run?
Its IC50 is less than 1000 nM.

Which IC50 does the source give for `O=C(COc1ccccc1-c1ccc(F)cc1F)N1CCC(CCc2ccc3c(c2)OCO3)CC1` [Compound 236] here?
The IC50 was 10000 to 50000 nM.

How did the IC50 turn out when `O=C(COc1ccccc1-c1ccc(C(F)(F)F)cc1F)N1CCC(CCc2ccc3c(c2)OCO3)CC1` [Compound 237] was run?
Its IC50 is less than 1000 nM.

`COc1ccc(F)c(-c2ccccc2OCC(=O)N2CCC(CCc3ccc4c(c3)OCO4)CC2)c1` [Compound 238] was tested. Which IC50 did it give?
Its IC50 is less than 1000 nM.

Which IC50 does the source give for `Cc1ccc(F)c(-c2ccccc2OCC(=O)N2CCC(CCc3ccc4c(c3)OCO4)CC2)c1` [Compound 239] here?
Its IC50 is less than 1000 nM.

With `O=C(COc1ccccc1-c1ccc(Cl)cc1Cl)N1CCC(CCc2ccc3c(c2)OCO3)CC1` [Compound 240] as the compound, how does the IC50 read?
The IC50 was 1000 to 10000 nM.
